These results are taken from paper PMC6795878, “Pentagamavunon-1 (PGV-1) inhibits ROS metabolic enzymes and suppresses tumor cell growth by inducing M phase (prometaphase) arrest and cell senescence” (Scientific Reports, 2019).

This assay concerns the target T1, GST-P1 (Homo sapiens, UniProt P09211).
T1 construct: gene GSTP1; 6xHis-tagged GST-P1 recombinant protein
Kind of assay: GSH-CDNB conjugation assay with purified recombinant enzyme; also PGV-1 bead pulldown competed by glutathione. It counts as biochemical.

T1 sequence (P09211 2-210): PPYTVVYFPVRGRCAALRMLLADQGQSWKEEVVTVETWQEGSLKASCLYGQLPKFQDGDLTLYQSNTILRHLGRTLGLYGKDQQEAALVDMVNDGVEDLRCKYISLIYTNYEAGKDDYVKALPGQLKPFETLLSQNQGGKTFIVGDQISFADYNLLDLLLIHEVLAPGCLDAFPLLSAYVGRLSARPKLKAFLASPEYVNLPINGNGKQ

On to `Cc1cc(/C=C2\CC/C(=C\c3cc(C)c(O)c(C)c3)C2=O)cc(C)c1O` [PGV-1], for which the 50% inhibitory concentration (IC50) (as a rule, the concentration that gives 50% inhibition) is 97.6 ± 3.8 µM.
